In PMC11259170, “Small-molecule probe for IBD risk variant GPR65 I231L alters cytokine signaling networks through positive allosteric modulation” (Science Advances, 2024):

What was measured:
hGPR4-SmBiT = molecular target: T1, hGPR4-SmBiT (Homo sapiens, UniProt P46093); test: Nano-BiT target engagement, LgBiT-mGs recruitment to hGPR4-SmBiT; type: cell-based; conditions: 10 μM
T1 construct: expressed in transfected cells; host or cells: Expi293F (Gibco), transient transfection
Description: Target engagement was measured in Expi293F (Gibco, 100044202) cells using the Nano-Glo Live Cell Assay System (Promega, N2011). Nano-BiT plasmids were cloned from GPR65-, GPR4-, and GPR68-Tango plasmids. GPR65-Tango (Addgene plasmid # 66370; http://n2t.net/addgene:66370; RRID:Addgene_66370), GPR4-Tango (Addgene plasmid # 66358; http://n2t.net/addgene:66358; RRID:Addgene_66358), and GPR68-Tango (Addgene plasmid # 66371; http://n2t.net/addgene:66371; RRID:Addgene_66371) were gifts from Bryan Roth. Expi293F cells were transfected 1 day before kinetics with 500 ng of each plasmid using ExpiFectamine 293 Transfection Kit (Gibco, A14525). After 24 hours, cells were collected, washed, and resuspended in room temperature 0.1% PBS-BSA, adjusted to pH 7.4 using 1 M NaOH. Cells were transferred to white opaque 96-well microplates (100 μl per well, PerkinElmer, 6005290), followed by addition of the Nano-Glo Live Cell Reagent (25 μl per well). Baseline luminescence was measured for 10 cycles (1 cycle = 90 s) before adding compounds. All luminescence measurements were made on BMG Labtech PHERAstar FSX. Data analysis was performed using GraphPad Prism.

[1] = test system: GPR65 KO HeLa cells + pLX empty vector; test: cAMP detection, GPR65 KO HeLa + empty pLX vector (null control); type: cell-based, human; conditions: Homo sapiens, 0.5 h; HeLa GPR65 KO + pLX, pH 7.1, 30 min, normalized to DMSO and 100 μM forskolin
Description: The Lance Ultra cAMP Kit (PerkinElmer, TRF0264) was used for cAMP detection, and included the following reagents: ULight anti-cAMP antibody, Eu-cAMP tracer, 7.5% BSA Stabilizer solution, and cAMP detection buffer. Stimulation buffer was prepared as described by the kit manufacturer as follows: Hanks buffered saline solution (HBSS, Life Technologies, 14025-126) containing 0.5 mM IBMX (3-isobutyl-1-methylxanthine, Sigma-Aldrich, I7018) and buffered with 1 M Hepes (15630-080). Stimulation buffer was then adjusted to pH 7.1 using 12 N HCl. HeLa cells were lifted using Versene and then suspended at 2.5 × 10^5 cells/ml in stimulation buffer. Cells were then plated at 20 μl per well (5000 cells per well) in white, opaque OptiPlate 384-well MicroPlates (PerkinElmer, 6007299) using a Thermo Fisher Scientific Combi liquid dispenser. Compounds, stored at 5 mM in DMSO for the primary screen, or in a range of concentrations from 39 μM to 20 mM for dose curves, were transferred by the CyBio CyBi-Well Vario pin transfer tool with 100-nl pins (V&P FP1NS50H, 50-nl slot, 0.457-mm diameter, hydrophobic coated), into each assay well, 100 nl per well for a final assay concentration of 25 μM for the primary screen, or 195 nM to 100 μM for dose curves. Assay plates were then incubated at RT for 30 min. Eu-cAMP tracer was diluted 1:33 into detection buffer and the final solution then distributed into assay wells, 5 μl per well. ULight anti-cAMP antibody was diluted 1:100 into detection buffer, then distributed into assay wells, also 5 μl per well. Assay plates were then incubated at RT in the dark for 1 hour. Eu-cAMP tracer and Förster resonance energy transfer (FRET) emissions were then read using a PerkinElmer EnVision Multimode plate reader (ENVISION21040010), exciting each well at 320 nm [UV2 (TRF) 320 filter] and reading emissions at 615 nm (Europium 615 filter) and 665 nm (APC665 filter). Data analysis was performed using Genedata Screener and GraphPad Prism.
HeLa KO cell lines were generated using the px330 plasmid CRISPR system as previously described ([18]). Briefly, HeLa cells were transfected with a Cas9 vector containing a gene-specific single-guide RNA to target the GPR65 coding exon. Forty-eight to 72 hours after transfection, single clones were obtained through limiting dilution and then sequenced to validate the KO. Reconstituted cell lines were produced by transducing KO cells with empty lentivirus or lentivirus containing hGPR65 or mGPR65. After 48 hours, cells were treated with puromycin (3 μg/ml; InvivoGen, ant-pr-1) and resistant cells were used in experiments.

[2] = test system: GPR65 WT mouse splenocytes; test: cAMP detection in GPR65 WT mouse splenocytes; type: cell-based; conditions: 0 to 50 μM, pH 7.2, GPR65-dependent
Description: cAMP was measured in cells using the Lance Ultra cAMP Kit. Spleens were harvested from GPR65 WT and GPR65 KO mice, homogenized and passed through a 70-μm cell strainer into harvest buffer [PBS, 0.5% bovine serum albumin (BSA), and 2 mM EDTA]. Cells were then centrifuged, washed with harvest buffer, and resuspended in red blood cell lysis buffer for 10 min at RT. Cells were counted and resuspended in assay buffer (25-ml DMEM, 0.5-ml 7.5% sodium bicarbonate, and 333-μl 7.5% BSA stabilizer) and adjusted to pH 7.2 with 1 M NaOH. Splenocytes were added to a white opaque OptiPlate 384-well microplates at a density of 100,000 cells per well in 20 μl. Compounds were added into the wells using a pin transfer tool, and plates were incubated at 37°C, 5% CO2 for 40 min. Each detection reagent (5 μl) was added to the plate and incubated at RT in the dark for 1 hour. Eu-cAMP tracer and FRET emissions were read using a PerkinElmer EnVision Multimode plate reader (ENVISION21040010). Data analysis was performed using GraphPad Prism.

T1 sequence (P46093 whole entry): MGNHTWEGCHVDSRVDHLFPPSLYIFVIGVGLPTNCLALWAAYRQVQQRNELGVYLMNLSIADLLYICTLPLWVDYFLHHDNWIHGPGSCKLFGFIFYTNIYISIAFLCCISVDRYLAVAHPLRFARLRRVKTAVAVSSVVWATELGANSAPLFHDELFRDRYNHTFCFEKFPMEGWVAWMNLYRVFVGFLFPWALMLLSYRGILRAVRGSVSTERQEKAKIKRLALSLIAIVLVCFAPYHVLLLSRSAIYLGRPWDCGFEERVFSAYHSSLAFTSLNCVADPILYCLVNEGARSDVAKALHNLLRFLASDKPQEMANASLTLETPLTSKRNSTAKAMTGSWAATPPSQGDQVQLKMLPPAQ

With `Cc1ccc(NC(=O)c2cnn3c(O)cc(-c4ccc(COC(C)C)cc4)nc23)nc1` [BRD5075, O=C(NC1=NC=C(C)C=C1)C2=C3N(N=C2)C(O)=CC(C4=CC=C(COC(C)C)C=C4)=N3] the “response in cells expressing hGPR4-SmBiT” value (hGPR4-SmBiT) was “failing to elicit responses”.

`CN1N=C(SCc2ccc(Cl)cc2Cl)Sc2c1cnn(C)c2=O` [BTB09089, reference compound] was tested, and the EC50 [1] was > 100 µM and the “cAMP production in mouse splenocytes, compared” value [2] was “induced higher cAMP production than BRD2813”.
